Source: patent US20110059909A1, “METHODS FOR TREATING INFLAMMATORY DISORDERS” (priority 2004, published 2011)

What was measured:
small GTPase Ras = assay: Quantification of Ras activation (GST-Raf-1 RBD pull-down) in primary astrocytes; type: cell-based, rat
Procedure: After stimulation, primary astrocytes in 6-well plates were washed with ice cold PBS and lysed in membrane lysis buffer (MLB; 0.5 ml of 25 mM HEPES, pH 7.5, 150 mM NaCl, 1% Igepal CA-630, 0.25% sodium deoxycholate, 10% glycerol, 10 mM MgCl2, 1 mM EDTA, 25 mM NaF, 1 mM of sodium orthovanadate, and EDTA free Complete™ protease inhibitor cocktail). After centrifugation (5,000×g) at 4° C. for 5 min, supernatant was used for Ras activation assay. One hundred μg of supernatant was used for binding with agarose conjugated Ras-binding domain (RBD) of Raf-1 which was expressed in BL21 (Invitrogen), Escherichia coli strain, transformed by pGEX-2T-GST-RBD in the presence of 0.1 mM of IPTG as described previously (Herrmann et al., 1995). The binding reaction was performed at 4° C. for 30 min in MLB. Following washing with MLB three times, Ras-RBD complex were denatured by adding of 2×SDS sample buffer. Ras protein was identified by western blot analysis with Ras antibodies from Upstate Biotechnology.

LacCer synthase (GalT-2) = target: T1, LacCer synthase (GalT-2) (Rattus norvegicus, UniProt O88419); assay: Measurement of [14C]LacCer synthesis in primary astrocytes (HPTLC); type: cell-based
T1 construct: using cell lysates derived from cells stimulated with LPS/IFNγ; endogenous in cells; host or cells: rat primary astrocytes
T1 sequence (O88419 1-382): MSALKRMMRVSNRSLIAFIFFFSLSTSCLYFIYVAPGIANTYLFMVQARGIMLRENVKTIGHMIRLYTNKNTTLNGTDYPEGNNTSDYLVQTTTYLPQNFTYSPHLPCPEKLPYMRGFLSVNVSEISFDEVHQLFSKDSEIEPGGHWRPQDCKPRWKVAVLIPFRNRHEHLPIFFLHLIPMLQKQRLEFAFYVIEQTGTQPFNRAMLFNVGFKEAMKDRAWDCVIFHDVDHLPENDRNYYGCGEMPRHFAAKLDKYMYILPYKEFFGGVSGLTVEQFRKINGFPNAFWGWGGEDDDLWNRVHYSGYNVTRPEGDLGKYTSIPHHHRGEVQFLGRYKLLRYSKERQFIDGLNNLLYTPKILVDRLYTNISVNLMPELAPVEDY
Procedure: Cultured cells were incubated in growth medium containing [^14C]galactose (5 μCi/ml) for 24 h as described previously. The medium was removed, and the cell monolayer was washed with sterile PBS. After the stimulation with LPS/IFNγ (1 μg/ml; 10 U/ml) for various durations, cells were then harvested and washed with ice cold PBS and lysed by sonication. 200 μg of protein was used for extraction of lipids using Chloroform:Methanol:HCl (100:100:1). The organic phase was dried under nitrogen. Glycosphingolipids were resolved by high performance thin layer chromatography using chloroform/methanol/0.25% KCl (70:30:4, v/v/v) as the developing solvent. The gel area corresponding to LacCer was scraped, and radioactivity was measured employing “liquiscint” (NEN Life Science Products) as a scintillating fluid.

TNFα = TNFα mRNA in LPS/IFNγ-stimulated primary astrocytes; type: cell-based, rat
Procedure: A 20-mer antisense oligonucleotide of the following sequence (5′-CGCTTGAGCGCAGACATCTT-3′, SEQ ID NO:1) targeted against rat lactosylceramide synthase (GalT-2) were synthesized by Integrated DNA Technology. A scrambled oligonucleotide (5′-CTGATATCGTCGATATCGAT-3′, SEQ ID NO:2) was also synthesized and used as control. Cells were counted and plated a day before transfection and the following day were treated with Oligofectamine (Invitrogen)-oligonucleotide complexes (200 nM oligo) under serum free conditions. 48 h following transfection, the protein levels of GalT-2 were analyzed using polyclonal antibodies raised against rat GalT-2 (Abjent Inc., CA). The transfected cells were stimulated with LPS/IFNγ (1 μg/ml) and levels of nitric oxide were checked 24 h following stimulation. iNOS mRNA and protein levels were checked at 6 h and 24 h, respectively, following stimulation of transfected cells.
5 μg total RNA was treated with 2 U DNAse I (bovine pancreas, Sigma) for 15 min at room temperature in 18 μl volume containing 1×PCR buffer and 2 mM MgCl2. It was then inactivated by incubation with 2 μl of 25 mM EDTA at 65° C. for 15 min. 2 μl of random primers were added and annealed to the RNA according to the manufacturer's protocol. cDNA was synthesized in a 50 μl reaction containing 5 μg of total RNA and 50-100 U reverse transcriptase by incubating the tubes at 42° C. for 60 min. […]

Reversal of LY-mediated inhibition of TNFα-mediated Ras activation (small GTPase Ras; LY 30 μM plus LacCer)	Reversal of PDMP-mediated reduction of LPS/IFNγ-mediated Ras activation (small GTPase Ras; LacCer plus PDMP 50 μM, LPS/IFNγ 5 min)	Reversal of PDMP-mediated inhibition of TNFα-induced Ras activation (small GTPase Ras; PDMP 25 μM plus LacCer)	Reversal of DMS-mediated inhibition of Ras activation (small GTPase Ras; exogenous lipid)	Compound	LPS/IFNγ-mediated activation of Ras (small GTPase Ras; PDMP 50 μM 0.5 h, LPS/IFNγ 5 min)	TNFα-induced Ras activation (small GTPase Ras; pretreated 0.5 h, TNFα)	[14C]LacCer biosynthesis following LPS/IFNγ-stimulation (LacCer synthase (GalT-2))	TNFα mRNA expression (TNFα; LPS/IFNγ-stimulated astrocytes, 48 h after transfection)	[14C]LacCer synthesis upon TNFα-stimulation (LacCer synthase (GalT-2); TNFα 1 ng/ml)	Reversal of AS-mediated inhibition of TNFα expression (TNFα; exogenous LacCer, LPS/IFNγ)
				CCCCCCCCCC(=O)NC(CN1CCOCC1)C(O)c1ccccc1.Cl [PDMP, D-threo-1-Phenyl-2-decanoylamino-3-morpholino-1-propanol.HCl]	reduced	attenuated	inhibited this increase			
				AS GalT-2 oligonucleotides: 20-mer antisense oligonucleotide 5′-CGCTTGAGCGCAGACATCTT-3′, SEQ ID NO:1, against rat lactosylceramide synthase (GalT-2) (antisense CGCTTGAGCGCAGACATCTT; chemistry not given here)			diminished synthesis	suppressed	diminished synthesis	
bypassed	fully reversed	fully reversed	reversed	Lactosylceramide [LacCer]						reversed
